# Read-outs that look alike come from different tables or passages of the source.
# Tests used:
# [1] = Biodistribution in normal mice at 120 min post injection; type: in vivo; conditions: N = 5, 120 min post injection
# Text: The feasibility of the developed PET probe [^68Ga]Ga-H3P2O8 in a mouse model of thigh infection as well as uptake in E. coli has been evaluated. […] The biodistribution of developed PET probe in normal and in thigh infected mice has been assessed (see FIG. 11). […] Micro-PET imaging of normal and thigh-infected mice has also been performed. The site of bacterial infection was evident on micro-PET images (see FIG. 13) with arrows in contrast to the non-infected group of mice. The bacterial site of infection on micro-PET images was confirmed by bacterial culture performed on the biopsied sample. Micro-PET imaging was performed at different time intervals to optimize imaging time.
# [2] = test system: Methicillin-resistant Staphylococcus aureus (MRSA); type: in vivo, rats; conditions: for SUV (Average ± SD), Contralateral Tibia / SUV (Average ± SD), Infected Tibia / SUV (Average ± SD), Muscle: Osteomyelitis Foreign Body model
# Protocol: The PET probe [^68Ga]Ga-H3P2O8 was evaluated in methicillin-resistant S. aureus (MRSA) foreign-body osteomyelitis in the left tibia with a stainless steel Kirschner wire (K-wire) implant in male Wister rats, following a previously established protocol [Ref. 17]. Briefly, a 1 cm incision was made on the medial tibia and the bone exposed. A 1.5 mm hole was drilled, 0.01 mL of arachidonic acid (a sclerosing agent) and 0.05 mL of a suspension containing MRSA DRL-6169 at 10^8 cfu/mL was injected into the bone. A 5 mm threaded stainless-steel K-wire was inserted. The hole was closed with dental gypsum and the site closed. After implantation, the muscle and fascia were closed with 3-0 vicryl using simple interrupted sutures. The skin was closed with sterile wound clips and VetBond. The wound was sprayed with Aluspray and Chew Guard. After 7 days of implantation of wire, the animal was put on iron-deficient diet for 7 days and on the day of imaging, the animals were fasted for 4 hours prior to the injection of the PET probe. [^68Ga]Ga-H3P2O8 (32.81±6.28 MBq, n=18) were injected into the rat model via tail vein injection. The rat model was either a normal rat model or an osteomyelitis foreign body rat model or an inflamed foreign body rat model. PET/CT images were acquired at 15 minutes, 30 minutes, 60 minutes, and 120 minutes post-injection using Siemens Inveon MicroPET/CT Scanner (see FIGS. 17, 18, and Table 2).
# (§1) The acquired PET images were visualized and analyzed for quantifying standardized uptake value (SUV) using image analysis software—MIM 7 software and PMOD. Following final imaging at 120 minutes post-injection, the animal was euthanized, and major organs and infected and inflamed tibia were extracted for gamma counting for ex-vivo biodistribution analysis (see FIG. 22). At the end of last imaging session, rats were euthanized by cardiectomy, and the operated tibia with K-wire or contralateral tibia were aseptically removed. Following removal, tibias were weighed, and Ga-68 radioactivity was counted in 2480 Wizard2 automatic gamma counter for ex-vivo biodistribution assessment. The tibias were then frozen to −80° C. The frozen tibia from each animal was crushed aseptically using a bone pulverizer chilled at −80° C. The crushed tibia without K wire was weighed and vortexed in 1 mL sterile saline. The K wire was also vortexed in 1.0 mL sterile saline separately. The vortexed tibia and K-wire saline suspension were sonicated for 5 minutes. After sonication, 1:10 serial dilutions were prepared in saline and 0.1 mL of each dilution was plated in Trypticase Soy Agar plates with 5% Sheep Blood (TSA II). After 24 hours of incubation at 37° C., the bacterial cultures in tibia suspension and K-wire suspension were quantified. In the 2-week-old osteomyelitis model used in the study, the infected tibia contained 7.00±0.19 log10 cfu/g tibia (n=10) and 5.41±0.40 log10 cfu/K-wire (n=10).
# [3] = test system: Methicillin-resistant Staphylococcus aureus (MRSA); experiment: Ex vivo biodistribution SUV ratios (operated tibia/contralateral tibia), MRSA infection and inflammation; type: in vivo, rats; conditions: 120 minutes post-injection, p<0.05 (FIG. 31)
# Protocol: The acquired PET images were visualized and analyzed for quantifying standardized uptake value (SUV) using image analysis software—MIM 7 software and PMOD. Following final imaging at 120 minutes post-injection, the animal was euthanized, and major organs and infected and inflamed tibia were extracted for gamma counting for ex-vivo biodistribution analysis (see FIG. 22). At the end of last imaging session, rats were euthanized by cardiectomy, and the operated tibia with K-wire or contralateral tibia were aseptically removed. Following removal, tibias were weighed, and Ga-68 radioactivity was counted in 2480 Wizard2 automatic gamma counter for ex-vivo biodistribution assessment. The tibias were then frozen to −80° C. […] After 24 hours of incubation at 37° C., the bacterial cultures in tibia suspension and K-wire suspension were quantified. […]
# Turning now to FIG. 28, the localization of [^68Ga]Ga-H3P2O8 at an infection was investigated in comparison to [^68Ga]Ga-Citrate and [^18F]FDG. The uptake of [^68Ga]Ga-H3P2O8, [^68Ga]Ga-citrate and [^18F]FDG at 120 minutes post-injection in areas of Methicillin-resistant Staphylococcus aureus (MRSA) infection was determined by ex vivo biodistribution. Additionally, the uptake of [^68Ga]Ga-H3P2O8, [^68Ga]Ga-citrate and [^18F]FDG at 120 minutes post-injection in an inflammation was determined similarly. […]
# [4] = test system: Pseudomonas aeruginosa (P. aeruginosa); experiment: Ex vivo biodistribution in osteomyelitis foreign body rat model with P. aeruginosa infection vs inflammation model; design: species or system rats; conditions: 120 minutes post-injection, comparable SUVs except bladder and feces (FIG. 35)
# Protocol: as §1, with “In the 2-week-old osteomyelitis model used in the study, the infected tibia contained 7.00±0.19 log10 cfu/g tibia (n=10) and 5.41±0.40 log10 cfu/K-wire (n=10).” left out
# [5] = test system: Methicillin-resistant Staphylococcus aureus (MRSA); type: in vivo, rats; conditions: PET image analysis, p<0.05 (FIG. 30)
smiles,measurement,setting,value
"O=P(O)(O)[O][Ga]1[O]P(=O)(O)[O]1 [[^68Ga]Ga-H3P2O8, [^68Ga]Ga-hydrogen bisphosphate]","SUV ± STD, Adipose",[1]; Adipose,0.76 ± 0.38 SUV
same,"SUV ± STD, Bladder",[1]; Bladder,2.41 ± 2.84 SUV
same,"SUV ± STD, Blood",[1]; Blood,2.76 ± 0.97 SUV
same,"SUV ± STD, Bone",[1]; Bone,1.88 ± 1.26 SUV
same,"SUV ± STD, Brain",[1]; Brain,0.07 ± 0.02 SUV
same,"SUV ± STD, Cecum",[1]; Cecum,1.33 ± 0.60 SUV
same,"SUV ± STD, Eye",[1]; Eye,2.30 ± 1.41 SUV
same,"SUV ± STD, Feces",[1]; Feces,0.82 ± 0.28 SUV
same,"SUV ± STD, Gut",[1]; Gut,1.15 ± 0.29 SUV
same,"SUV ± STD, Heart",[1]; Heart,0.87 ± 0.30 SUV
same,"SUV ± STD, Kidney-1",[1]; Kidney-1,1.11 ± 0.29 SUV
same,"SUV ± STD, Kidney-2",[1]; Kidney-2,0.71 ± 0.20 SUV
same,"SUV ± STD, Liver",[1]; Liver,1.05 ± 0.42 SUV
same,"SUV ± STD, Lung-1",[1]; Lung-1,2.17 ± 0.85 SUV
same,"SUV ± STD, Lung-2",[1]; Lung-2,3.22 ± 2.29 SUV
same,"SUV ± STD, Normal Thigh",[1]; Normal Thigh,0.52 ± 0.23 SUV
same,"SUV ± STD, Skin",[1]; Skin,0.71 ± 0.38 SUV
same,"SUV ± STD, Spleen",[1]; Spleen,0.70 ± 0.16 SUV
same,"SUV ± STD, Stomach",[1]; Stomach,0.49 ± 0.24 SUV
same,mean SUV in infected tibia compared with [^68Ga]Ga-Citrate or [^18F]FDG,"[2]; MRSA infected tibia, after 60 minutes post injection, PET image analysis (FIG. 26)",significantly higher mean SUV
same,"SUV (Average ± SD), Contralateral Tibia","[2]; n = 5, 15 min post-injection",0.76 ± 0.17 SUV
same,"SUV (Average ± SD), Infected Tibia","[2]; n = 5, 15 min post-injection",1.82 ± 0.57 SUV
same,"SUV (Average ± SD), Muscle","[2]; n = 5, 15 min post-injection",0.59 ± 0.14 SUV
same,"SUV (Average ± SD), Contralateral Tibia","[2]; n = 5, 30 min post-injection",0.59 ± 0.12 SUV
same,"SUV (Average ± SD), Infected Tibia","[2]; n = 5, 30 min post-injection",2.40 ± 0.49 SUV
same,"SUV (Average ± SD), Muscle","[2]; n = 5, 30 min post-injection",0.58 ± 0.20 SUV
same,"SUV (Average ± SD), Contralateral Tibia","[2]; n = 5, 60 min post-injection",0.60 ± 0.15 SUV
same,"SUV (Average ± SD), Infected Tibia","[2]; n = 5, 60 min post-injection",2.87 ± 0.66 SUV
same,"SUV (Average ± SD), Muscle","[2]; n = 5, 60 min post-injection",0.67 ± 0.18 SUV
same,"SUV (Average ± SD), Contralateral Tibia","[2]; n = 5, 120 min post-injection",0.29 ± 0.18 SUV
same,"SUV (Average ± SD), Infected Tibia","[2]; n = 5, 120 min post-injection",3.48 ± 0.25 SUV
same,"SUV (Average ± SD), Muscle","[2]; n = 5, 120 min post-injection",0.76 ± 0.30 SUV
same,"uptake as SUV ratios (Operated tibia/contralateral tibia), MRSA vs P. aeruginosa",[3],significant difference in uptake
same,distribution in organs/excrement of infected model compared with inflammation model,[4],similar
same,mean SUV for MRSA-infected animal compared with animals infected with K. pneumoniae or P. aeruginosa,[5],significantly higher
